Results: patent US20190177279A1, “CARBOXYLIC ACID AROMATIC 1,2-CYCLOPROPYLAMIDES” (Bayer Pharma Aktiengesellschaft, priority 2017, published 2019)
Like-named read-outs stand apart in the source and are kept apart here. Each block holds one compound with its values, some of them ahead of it.

Columns and labels:
[1] = prior art, Bioorg Med Chem Lett 2010; cited from earlier work
[2] = prior art, Bioorg Med Chem Lett 2010; cited from earlier work; remark: listed apart in the source
[3] = prior art, Bioorg Med Chem Lett 2010; cited from earlier work; remark: listed apart in the source
[4] = prior art, Bioorg Med Chem Lett 2010; cited from earlier work; remark: listed apart in the source
IL-8 secretion = test: Bradykinin B1 receptor agonist-induced secretion of IL-8 in human IMR-90 cells; assay type: cell-based; details: 0.1 μM Lys-[Des-Arg9]Bradykinin and 0.1 μM Sar-[D-Phe8]-des-Arg9-Bradykinin, 5 hours
Description: (§1) Inhibitory Activity on Bradykinin B1 Receptor Agonist-Induced Secretion of IL-6 and IL-8 in Human IMR-90 Cells
(§2) The effect of the compound examples on secretion of the cytokine IL-6 and IL-8 was investigated in the human foetal lung fibroblast IMR-90 cell line. Here the induction of the cytokine secretion was induced by the Bradykinin B1 receptor agonists Lys-[Des-Arg9]Bradykinin (CAS 71800-36-7, Tocris Bioscience) and Sar-[D-Phe8]-des-Arg9-Bradykinin (CAS 126959-88-4, Tocris Bioscience) leading to the activation of the Bradykinin B1-driven signalling pathway. […]
(§3) IMR-90 cells were cultured in Eagle's Minimum Essential Medium (EMEM) containing 2 mM L-glutamine, 1 g/L glucose, 1.5 g/L NaHCO3, 1 mM sodium pyruvate and non-essential amino acids (ATCC, 30-2003™) supplemented with 10% FBS (Biochrom, 50615) and 50 U/mL Penicillin, 50 μg/mL Streptomycin (PAA, P11-010). […] The compound examples were serially diluted in 100% DMSO and evaluated at 8 different concentrations within the range of 3 nM and 10 μM and a final DMSO concentration of 0.4%. […] The amount of IL-6 and IL-8 in the supernatant was determined using the Human ProInflammatory Panel II (4-Plex) (MSD, K15025B) according to manufacturer's instruction. […] The cell viability was measured using the CellTiter-Glo Luminescent Assay (Promega, G7571) following the manufacturers protocol. […]

human B1 receptor = target: T1, human B1 receptor (Homo sapiens, UniProt P46663); test: Calcium flux assay (FLIPR) with recombinant CHO-K1 cells expressing human B1 receptor; assay type: cell-based; details: agonist Lys-(Des-Arg)-Bradykinin
T1 construct: host or cells: CHO-K1
T1 sequence (P46663 1-353): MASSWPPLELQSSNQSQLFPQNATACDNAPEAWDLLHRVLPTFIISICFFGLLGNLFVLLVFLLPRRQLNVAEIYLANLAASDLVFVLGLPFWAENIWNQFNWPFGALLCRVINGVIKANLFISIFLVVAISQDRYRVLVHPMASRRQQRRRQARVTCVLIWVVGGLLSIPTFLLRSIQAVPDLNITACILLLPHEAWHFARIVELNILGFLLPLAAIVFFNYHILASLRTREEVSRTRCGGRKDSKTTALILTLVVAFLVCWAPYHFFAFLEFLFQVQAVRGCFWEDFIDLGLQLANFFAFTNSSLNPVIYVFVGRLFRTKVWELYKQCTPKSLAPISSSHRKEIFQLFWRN
Procedure: The potency to inhibit the Bradykinin B1 receptors was determined for the example compounds of this invention in a cell-based fluorescent calcium-mobilisation assay. The assay measures the ability of example compounds to inhibit Bradykinin B1 receptor agonist-induced increase of intracellular free Ca^2+ in the cell line expressing B1 receptor. Specifically, calcium indicator—loaded cells are pre-incubated in the absence or presence of different concentrations of example compounds followed by the stimulation with a selective B1 receptor agonist peptide. The change of the intracellular Ca^2+ concentration is monitored with a fluorescent plate reader FLIPR (Molecular Devices).
Calcium flux Assay (FLIPR) with recombinant cells for Bradykinin B1 receptor antagonist, either in the presence (hB1 IC50) or absence (hB1 free IC50) of 0.1% BSA in assay buffer
CHO-K1 cell line expressing human B1 receptor was purchased from Euroscreen (Gosselies, Belgium, with reference name hB1-D1). The cells were grown in Nutrient Mixture Ham's F12 (Sigma) containing 10% Foetal bovine serum (Sigma) and 400 μg/mL G418 (Sigma), 5 μg/mL puromycin (Sigma).
For the calcium flux assay, 80% confluent cells were detached from the culture vessels with Versene (Gibco), and seeded into 384-well plates (Cell binding Surface; Corning, N.Y.; #3683) at a density of 15,000 cells per well. Cells were seeded in a volume of 50 μL in medium without antibiotics and incubated overnight in a humidified atmosphere with 5% CO2 at 37° C. […] The calcium indicator loaded cells were incubated at 37° C. for 2 hrs. Extracellular dye was then removed and each well was filled with 45 μL of assay buffer. Cell plates were kept in dark until used. Example compounds were assayed at 8 concentrations in triplicate. Serial 10-fold dilutions in 100% DMSO were made at a 100-times higher concentration than the final concentration, and then diluted 1:10 in assay buffer. 5 μL of each diluted compound was added to the well of cell plates (yielding final concentration with 1% DMSO), and incubated for 30 min at 28° C. before the addition of B1 receptor agonist on the FLIPR instrument.
Agonist plates contained the agonist Lys-(Des-Arg)-Bradykinin (Bachem, Brackley) at 3.5×EC90 in assay buffer with 1% DMSO. The addition of agonist 20 μl per well to the assay plate was carried out on the FLIPR instrument while continuously monitoring Ca^2+-dependent fluorescence at 538 nm. A peptide antagonist Lys-(Des-Arg-Leu)-Bradykinin (Bachem, Brackley) at 20 µM was used to determine the full inhibition as control.
Peak fluorescence was used to determine the response to agonist obtained at each concentration of example compound by the following equation:
% Response=100*(RFU(example compound)−RFU(control)/(RFU(DMSO)−RFU(control)) • Control=full inhibition by the peptide antagonist Lys-(Des-Arg-Leu)-Bradykinin at 20 μM
The response values were plotted against the logarithm of the compound concentrations. The compounds were tested in triplicates per plate and mean values were plotted in Excel XLfit to determine IC50 values, percentage of maximal inhibition and the Hill slopes.

stimulated IMR-90 cells = test: Cell viability, CellTiter-Glo Luminescent Assay; assay type: cell-based, human
Procedure: IMR-90 cells were cultured in Eagle's Minimum Essential Medium (EMEM) containing 2 mM L-glutamine, 1 g/L glucose, 1.5 g/L NaHCO3, 1 mM sodium pyruvate and non-essential amino acids (ATCC, 30-2003™) supplemented with 10% FBS (Biochrom, 50615) and 50 U/mL Penicillin, 50 μg/mL Streptomycin (PAA, P11-010). The assay was performed in EMEM and a cell density of […] IMR-90 cells/96-well. The compound examples were serially diluted in 100% DMSO and evaluated at 8 different concentrations within the range of 3 nM and 10 μM and a final DMSO concentration of 0.4%. The IMR-90 cells were incubated with the respective concentration of the compound for 30 min. […] The amount of IL-6 and IL-8 in the supernatant was determined using the Human ProInflammatory Panel II (4-Plex) (MSD, K15025B) according to manufacturer's instruction. […] Plates were washed three times with phosphate-buffered saline (PBS; 137 mM NaCl, 2.7 mM KCl, 6.5 mM Na2HP04, 1.7 mM KH2P04) containing 0.05% Tween-20 (Bio-Rad, 161-0781) and electrochemiluminescence detected using the MSD Sector Imager 6000 plate reader. The cell viability was measured using the CellTiter-Glo Luminescent Assay (Promega, G7571) following the manufacturers protocol. […] After incubation and shaking for 10 minutes luminescent signal was measured which was proportional to the amount of ATP present. […]

IL-6 secretion = test: Bradykinin B1 receptor agonist-induced secretion of IL-6 in human IMR-90 cells; assay type: cell-based; details: 0.1 μM Lys-[Des-Arg9]Bradykinin and 0.1 μM Sar-[D-Phe8]-des-Arg9-Bradykinin, 5 hours
Description: as §1, §2, §3

[5] = target: T2, native human B1 receptors (Homo sapiens, UniProt P46663); test: Calcium flux assay (FLIPR) with IMR-90 human foetal lung fibroblasts after IL-1 induction; assay type: cell-based; details: IMR-90 fibroblasts induced with human IL-1; 0.1% BSA in assay buffer; agonist Lys-(Des-Arg)-Bradykinin at EC90; read-out: hB1 IC50 IMR90
T2 construct: which express native human B1 receptors after induction with human IL-1; Coriell Institute; host or cells: IMR-90 human foetal lung fibroblasts, induced with human IL-1
T2 sequence (P46663 1-353): T1 sequence (P46663 1-353)
Procedure: Calcium Flux Assay (FLIPR) with Human Fibroblasts for Bradykinin B1 Receptor Antagonist (hB1 IMR-90 IC50)
The Calcium flux Assay was carried out utilising IMR-90 human foetal lung fibroblasts (American Type Culture Collection, Rockville, Md.; and Coriell Institute, Camden, N.J.), which express native human B1 receptors after induction with human IL-1[…].
The fibroblasts were cultured in complete growth media comprised of Dulbecco's modified Eagle's medium (DMEM; Sigma) containing 10% foetal bovine serum, 4 mM L-glutamine, and 1% nonessential amino acids. The cells were maintained in a humidified atmosphere with 5% CO2 at 37° C. and were sub-cultured at a ratio of 1:3, every other day.
For the assay, IMR-90 fibroblasts were harvested using TrypLE Express (GIBCO/Invitrogen) and seeded into 384-well plates (Corning Cellbinding Surface, Cat. 3683) at a density of 15000 cells/well. The following day, cells were treated with 0.35 ng/mL human IL-1[…] in 10% FBS/MEM for 3 h to up-regulate B1 receptors. Induced cells were loaded with fluorescent calcium indicator by incubation with 2.5 μM Fluo-4/AM (Invitrogen) at 37° C., 5% CO2 for 2 h in the presence of 2.5 mM probenecid in 1% FBS/MEM. Extracellular dye was removed by washing with assay buffer (2.5 mM probenecid and 0.1% BSA in 20 mM HEPES/HBSS without bicarbonate or phenol red, pH 7.5). Example compounds were assayed at 8 concentrations in triplicate. After addition of example compounds to the cell plate and incubation for 30 min at 28° C., the addition of B1 agonist Lys-(Des-Arg)-Bradykinin (Bachem, Brackley) at a final concentration of EC90 was carried out on the FLIPR instrument while continuously monitoring Ca^2+-dependent fluorescence at 538 nm. A peptide antagonist Lys-(Des-Arg-Leu)-Bradykinin (Bachem, Brackley) at 20 μM was used to determine the full inhibition as control. IC50 values were determined by the same way described for the FLIPR assay with recombinant cells.

[6] = due to metabolic liability; prior art; cited from earlier work
[7] = absence of 0.1% BSA in assay buffer, read-out: hB1 free IC50

Compound: C[C@@H]1CC[C@H](C)N1C(=O)c1ccc([C@@H](C)NC(=O)C2(NC(=O)c3cc(F)cc(C(F)(F)F)c3)CC2)c(F)c1
aqueous solubility [1]: reasonable
pharmacokinetic profile in rat [2]: reasonable
human metabolic stability [3]: poor
penetration profile [4]: acceptable

Compound: O=C(O)c1cc(NC(=O)C2CC2c2cccc(Cl)c2)ccc1-c1cnn(C2CCC2)c1 (racemic) [Example 1, 5-({[2-(3-chlorophenyl)cyclopropyl]carbonyl}amino)-2-(1-cyclobutyl-1H-pyrazol-4-yl)benzoic acid]
IC50 (IL-8 secretion): 509 nM
IC50 (human B1 receptor; [7]): 207 nM
IC50 (human B1 receptor; presence of 0.1% BSA in assay buffer, read-out: hB1 IC50): 65 nM
effect on the cell viability (stimulated IMR-90 cells): no effect
IC50 (IL-6 secretion): 99 nM

Compound: C[C@@H](NC(=O)C1(NC(=O)C(F)(F)F)CC1)c1ccc(-c2cccc(Cl)c2C(=O)O)cc1F [MK-0686]
pharmacokinetic profile [6]: suboptimal

Results, then the compound that gave them:

IC50 [5]: 529 nM
IC50 (human B1 receptor; [7]): 309 nM
Compound: CCC(F)(F)c1ccc(-c2ccc(NC(=O)C3CC3c3ccc(Cl)cc3)cc2C(=O)O)cn1 (racemic) [Example 23, 5-({[2-(4-Chlorophenyl)cyclopropyl]carbonyl}amino)-2-[6-(1,1-difluoropropyl)pyridin-3-yl]benzoic acid]

IC50 [5]: 2330 nM
IC50 (human B1 receptor; [7]): 1080 nM
Compound: O=C(O)c1cc(NC(=O)C2CC2c2ccc(Cl)cc2)cc(F)c1-c1ccc(C(F)(F)F)nc1 (racemic) [Example 24, 5-({[2-(4-chlorophenyl)cyclopropyl]carbonyl}amino)-3-fluoro-2-[6-(trifluoromethyl)pyridin-3-yl]benzoic acid]

IC50 [5]: 4730 nM
IC50 (human B1 receptor; [7]): 1260 nM
Compound: O=C(O)c1cc(NC(=O)C2CC2c2ccc(Cl)cc2)c(F)cc1-c1ccc(C(F)(F)F)nc1 (racemic) [Example 25, 5-({[2-(4-chlorophenyl)cyclopropyl]carbonyl}amino)-4-fluoro-2-[6-(trifluoromethyl)pyridin-3-yl]benzoic acid]

IC50 [5]: 51 nM
IC50 (human B1 receptor; [7]): 10 nM
Compound: (+)-5-({[trans-2-(4-chlorophenyl)cyclopropyl]carbonyl}amino)-2-(1-cyclobutyl-1H-pyrazol-4-yl)-3-fluorobenzoic acid [Example 3]
